Reference: patent publication US7078554B2, “Detection of glucose in solutions also containing an alpha-hydroxy acid or a beta-diketone” (Sensors for Medicine and Science, Inc., priority 2001, dated 2006)

Legend:
[1] = Modulation of fluorescence with lactate
[2] = Modulation of fluorescence with glucose
[3] = Effect of lactate in solution on the dose response effect of glucose on fluorescence; details: 75 μM in PBS, 0–10 mM glucose with 0, 2 or 5 mM lactate, excitation 365 nm (FIG. 3)
Method: Spectra were recorded using a Shimadzu RF-5301 spectrafluorometer with excitation @365 nm; excitation slits at 1.5 nm; emission slits at 1.5 nm; ambient temperature. All points measured in triplicate, with ±1 SD error bars included.
(§1) The hydrogel film (100 μm thickness, 8 mm diameter disk) was mounted in a PMMA cuvette at a 45° angle. All measurements were made at 37° C. in a Shimadzu RF-5301 spectrofluorometer with excitation at 370 nm (slit=3 nm) and emission at 430 nm (slit=3 nm) at low PMT sensitivity. Glucose and L-sodium lactate concentrations were checked using the YSI Model 2300 STAT plus glucose analyzer. Error bars are standard deviation with triplicate values for each data point.
as §1, with “The data is plotted as the average of” for “Error bars are standard deviation with”

[4] = aqueous association with glucose; cited from earlier work
Solubility = format: physicochemical; details: solvents in which soluble

N-2-[6-N-(N-4-dimethylaminobenzyl)-6-N-[2-(borono)benzyl]aminohexyl]-[2-(borono)benzyl]amino-ethyl-4-butylamino-1,8-naphthalimide [Example 5]
normalized fluorescence emission (I/Io @ 535 nm), effect of lactate ([1]; 0.015 mM in 70/30 MeOH/PBS, 0–20 mM lactate, excitation 450 nm (FIG. 5)): not substantially affected by the presence of lactate | normalized fluorescence emission (I/Io @ 535 nm), effect of glucose ([2]; 0.015 mM in 70/30 MeOH/PBS, 0–20 mM glucose, excitation 450 nm (FIG. 5)): affected by the presence of glucose

CN(CCNc1ccc2c3c(cccc13)C(=O)N(CCNC(=O)c1cc(B(O)O)cc([N+](=O)[O-])c1)C2=O)Cc1ccccc1B(O)O [Example 10, N-(3-Borono-5-nitrobenzamido)ethyl-4-(N′-aminoethylene-N″-[2-(borono)benzyl]methylamino)naphthalene-1,8-dicarboximide]
normalized fluorescence emission (I/I0 at 530 nm), effect of lactate ([1]; in MeOH/PBS (50/50 vol. %), pH 7.4, 0–7 mM L-sodium lactate, excitation 430 nm (FIG. 13)): not by the presence of lactate | normalized fluorescence emission (I/I0 at 525 nm), effect of glucose ([2]; in MeOH/PBS (50/50 vol. %), pH 7.4, 0–50 mM glucose, excitation 430 nm (FIG. 12)): affected by the presence of glucose

O=C(O)CCN(Cc1ccccc1B(O)O)Cc1c2ccccc2c(CN(CCC(=O)O)Cc2ccccc2B(O)O)c2ccccc12 [9,10-bis[N-(2-boronobenzyl)-N-[2-(carboxyethyl)amino]-methyl]anthracene]
effect of lactate on the fluorescence modulation (at 428 nm) by glucose [3]: did not substantially affect

OB(O)c1ccccc1 [phenylboronic acid]
Kd [4]: 9.1 mM

C=C(C)C(=O)NCCCN(Cc1ccccc1B(O)O)Cc1c2ccccc2c(CN(CCC(=O)O)Cc2ccccc2B(O)O)c2ccccc12 [Example 12, 9-[N-(2-boronobenzyl)-N-[3-(methacrylamido)propylamino]methyl]-10-[N-(2-boronobenzyl)-N-[2-(carboxyethyl)amino]methyl]anthracene]
Solubility (Solubility): PBS/methanol, methanol, ethanol, chloroform, dichloromethane

C=C(C)C(=O)NCCCN(Cc1ccccc1B1OC(C)(C)C(C)(C)O1)Cc1c2ccccc2c(CN(CCC(=O)NCCCCCCNC(=O)c2c3ccccc3cc3ccccc23)Cc2ccccc2B2OC(C)(C)C(C)(C)O2)c2ccccc12 [Example 13]
Solubility (Solubility): PBS/methanol, methanol, ethanol, chloroform, dichloromethane
